For three compounds, remaining binding results are on record in patent US10870647B2, “Imidazopyridine derivative, method for preparing same, and pharmaceutical composition containing same as active ingredient for preventing or treating cancer” (DAEGU-GYEONGBUK MEDICAL INNOVATION FOUNDATION, priority 2016, dated 2020).

The structures appear in SMILES notation.

Common to all, as to test: Kinase selectivity, scanMAX Kinase assay panel (DiscoverX), % control at 1 uM
What all share (type): binding

The target in assay [1] is T1, scanMAX Kinase assay panel (Homo sapiens, UniProt P42336, E545A).
T1 construct: purchased DiscoverX
Conditions: PIK3CA (E545A); 1 uM; read-out: Percent Control (%). In a few lines:
(§1)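 A single concentration of 1 uM, in DMSO, is applied across the kinase panel. Activity against an individual enzyme is assigned where % control is less than 35.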

In assay [2] the target is T2, scanMAX Kinase assay panel (Homo sapiens, UniProt Q06187).
T2 construct: purchased DiscoverX
Conditions: BTK; 1 uM; read-out: Percent Control (%). In a few lines: as §1

In assay [3] the target is T3, scanMAX Kinase assay panel (Homo sapiens, UniProt Q9NRP7).
T3 construct: purchased DiscoverX
T3 sequence (Q9NRP7 1-1315): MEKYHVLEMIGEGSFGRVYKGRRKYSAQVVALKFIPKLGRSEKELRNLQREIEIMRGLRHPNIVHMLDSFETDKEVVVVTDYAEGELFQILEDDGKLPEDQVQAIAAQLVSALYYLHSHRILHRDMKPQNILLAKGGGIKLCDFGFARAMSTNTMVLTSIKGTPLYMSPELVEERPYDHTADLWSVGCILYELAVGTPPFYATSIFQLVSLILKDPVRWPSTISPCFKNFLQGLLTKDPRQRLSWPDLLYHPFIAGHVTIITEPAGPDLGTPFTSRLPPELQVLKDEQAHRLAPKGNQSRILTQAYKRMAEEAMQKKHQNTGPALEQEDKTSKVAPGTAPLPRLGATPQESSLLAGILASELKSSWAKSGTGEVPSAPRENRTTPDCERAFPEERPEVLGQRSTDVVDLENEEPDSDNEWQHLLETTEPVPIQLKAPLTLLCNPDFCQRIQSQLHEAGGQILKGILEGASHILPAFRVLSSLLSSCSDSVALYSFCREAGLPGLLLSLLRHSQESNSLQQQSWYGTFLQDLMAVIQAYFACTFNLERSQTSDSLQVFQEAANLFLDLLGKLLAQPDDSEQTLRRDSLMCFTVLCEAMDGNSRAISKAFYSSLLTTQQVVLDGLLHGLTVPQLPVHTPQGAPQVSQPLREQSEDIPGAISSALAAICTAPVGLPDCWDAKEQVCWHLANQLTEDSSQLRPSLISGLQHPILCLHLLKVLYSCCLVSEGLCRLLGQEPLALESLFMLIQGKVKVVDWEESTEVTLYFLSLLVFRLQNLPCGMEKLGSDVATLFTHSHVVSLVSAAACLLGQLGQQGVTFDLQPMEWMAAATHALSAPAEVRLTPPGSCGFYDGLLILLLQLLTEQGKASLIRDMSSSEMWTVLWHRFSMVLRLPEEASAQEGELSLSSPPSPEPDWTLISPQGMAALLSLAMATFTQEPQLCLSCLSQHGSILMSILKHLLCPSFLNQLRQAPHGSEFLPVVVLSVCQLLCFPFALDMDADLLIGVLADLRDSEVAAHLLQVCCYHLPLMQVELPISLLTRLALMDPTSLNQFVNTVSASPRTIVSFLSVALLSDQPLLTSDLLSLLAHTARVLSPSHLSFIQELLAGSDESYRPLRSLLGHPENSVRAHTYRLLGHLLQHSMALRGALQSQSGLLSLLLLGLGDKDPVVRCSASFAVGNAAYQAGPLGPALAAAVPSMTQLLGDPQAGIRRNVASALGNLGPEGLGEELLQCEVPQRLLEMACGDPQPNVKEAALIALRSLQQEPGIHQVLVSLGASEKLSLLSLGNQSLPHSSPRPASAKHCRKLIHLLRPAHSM
Particulars: STK36; 1 uM; read-out: Percent Control (%). In short, it runs like this:
as §1

Assay [4] addresses T4, scanMAX Kinase assay panel (Homo sapiens, UniProt Q96SB4).
T4 construct: purchased DiscoverX
Particulars: SRPK1; 1 uM; read-out: Percent Control (%). In short, it runs like this:
as §1

The target in assay [5] is T5, scanMAX Kinase assay panel (Homo sapiens, UniProt P29317).
T5 construct: purchased DiscoverX
Particulars: EPHA2; 1 uM; read-out: Percent Control (%). In short, it runs like this: as §1

Assay [6] deals with T6, scanMAX Kinase assay panel (Homo sapiens, UniProt O15111).
T6 construct: purchased DiscoverX
T6 sequence (O15111 1-745): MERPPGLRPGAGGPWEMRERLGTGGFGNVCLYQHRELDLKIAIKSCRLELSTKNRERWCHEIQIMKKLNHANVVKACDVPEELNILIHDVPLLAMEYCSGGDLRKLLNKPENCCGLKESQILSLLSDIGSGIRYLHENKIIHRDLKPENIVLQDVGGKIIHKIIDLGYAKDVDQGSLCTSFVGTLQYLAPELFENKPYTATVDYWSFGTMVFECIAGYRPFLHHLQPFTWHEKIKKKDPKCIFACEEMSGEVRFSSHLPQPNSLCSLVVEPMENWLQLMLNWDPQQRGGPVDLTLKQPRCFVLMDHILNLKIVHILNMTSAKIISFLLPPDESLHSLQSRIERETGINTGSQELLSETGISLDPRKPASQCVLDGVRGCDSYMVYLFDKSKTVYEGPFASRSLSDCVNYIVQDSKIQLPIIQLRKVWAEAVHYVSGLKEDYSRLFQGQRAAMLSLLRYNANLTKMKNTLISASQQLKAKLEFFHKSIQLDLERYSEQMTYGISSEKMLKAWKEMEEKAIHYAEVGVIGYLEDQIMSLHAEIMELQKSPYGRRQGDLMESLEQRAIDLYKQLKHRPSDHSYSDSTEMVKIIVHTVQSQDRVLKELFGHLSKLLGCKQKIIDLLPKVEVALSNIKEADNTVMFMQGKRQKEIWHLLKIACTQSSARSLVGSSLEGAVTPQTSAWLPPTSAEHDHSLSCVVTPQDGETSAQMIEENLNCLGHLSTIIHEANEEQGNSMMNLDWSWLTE
Particulars: IKK-alpha; 1 uM; read-out: Percent Control (%). In a few lines: as §1

T2 sequence (Q06187 whole entry): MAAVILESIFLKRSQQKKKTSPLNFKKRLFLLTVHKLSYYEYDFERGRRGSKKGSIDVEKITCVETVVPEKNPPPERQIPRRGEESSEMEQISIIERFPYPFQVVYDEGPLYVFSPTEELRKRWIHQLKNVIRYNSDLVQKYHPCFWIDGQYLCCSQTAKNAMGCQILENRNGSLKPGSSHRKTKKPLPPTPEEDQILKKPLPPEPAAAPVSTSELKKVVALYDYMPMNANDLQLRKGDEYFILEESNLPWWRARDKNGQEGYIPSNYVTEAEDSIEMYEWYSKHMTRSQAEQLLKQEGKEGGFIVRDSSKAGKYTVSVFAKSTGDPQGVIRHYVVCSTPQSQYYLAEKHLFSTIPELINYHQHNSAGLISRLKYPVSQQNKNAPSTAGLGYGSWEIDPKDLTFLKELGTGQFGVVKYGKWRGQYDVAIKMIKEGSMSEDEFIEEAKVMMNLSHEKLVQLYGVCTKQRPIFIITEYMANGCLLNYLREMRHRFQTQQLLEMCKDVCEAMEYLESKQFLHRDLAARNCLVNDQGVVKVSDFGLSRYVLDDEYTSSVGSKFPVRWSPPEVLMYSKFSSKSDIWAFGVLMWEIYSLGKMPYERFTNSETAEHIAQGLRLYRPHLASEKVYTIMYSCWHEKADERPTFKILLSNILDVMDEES
T1 sequence (P42336 whole entry E545A): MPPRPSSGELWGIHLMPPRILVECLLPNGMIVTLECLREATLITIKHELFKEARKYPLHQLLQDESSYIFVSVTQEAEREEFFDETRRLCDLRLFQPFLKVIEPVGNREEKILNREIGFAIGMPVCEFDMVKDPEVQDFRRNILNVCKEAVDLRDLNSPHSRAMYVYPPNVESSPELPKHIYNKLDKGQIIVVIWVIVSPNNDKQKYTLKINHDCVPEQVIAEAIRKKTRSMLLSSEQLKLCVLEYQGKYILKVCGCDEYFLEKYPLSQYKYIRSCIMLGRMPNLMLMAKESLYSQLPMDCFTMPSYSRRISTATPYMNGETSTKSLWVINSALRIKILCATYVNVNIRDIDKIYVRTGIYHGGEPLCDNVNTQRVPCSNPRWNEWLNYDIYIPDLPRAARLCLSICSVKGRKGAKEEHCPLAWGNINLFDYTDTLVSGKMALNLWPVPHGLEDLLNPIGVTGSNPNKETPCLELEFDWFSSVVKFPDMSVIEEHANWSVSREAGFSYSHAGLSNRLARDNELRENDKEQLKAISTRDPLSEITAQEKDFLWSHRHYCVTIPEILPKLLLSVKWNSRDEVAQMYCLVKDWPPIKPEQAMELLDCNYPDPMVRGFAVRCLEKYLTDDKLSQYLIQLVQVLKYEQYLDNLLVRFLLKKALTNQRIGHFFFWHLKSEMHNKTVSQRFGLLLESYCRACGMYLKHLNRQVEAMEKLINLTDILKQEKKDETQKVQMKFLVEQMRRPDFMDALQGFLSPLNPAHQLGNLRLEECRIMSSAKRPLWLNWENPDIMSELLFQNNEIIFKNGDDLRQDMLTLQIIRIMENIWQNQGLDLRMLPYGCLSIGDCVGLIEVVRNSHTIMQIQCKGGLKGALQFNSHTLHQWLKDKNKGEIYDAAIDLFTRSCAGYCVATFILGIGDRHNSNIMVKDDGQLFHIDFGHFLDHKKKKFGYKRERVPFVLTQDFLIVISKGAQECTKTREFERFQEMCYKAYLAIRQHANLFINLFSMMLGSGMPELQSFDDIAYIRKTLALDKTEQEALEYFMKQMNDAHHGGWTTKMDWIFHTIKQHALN
T4 sequence (Q96SB4 whole entry): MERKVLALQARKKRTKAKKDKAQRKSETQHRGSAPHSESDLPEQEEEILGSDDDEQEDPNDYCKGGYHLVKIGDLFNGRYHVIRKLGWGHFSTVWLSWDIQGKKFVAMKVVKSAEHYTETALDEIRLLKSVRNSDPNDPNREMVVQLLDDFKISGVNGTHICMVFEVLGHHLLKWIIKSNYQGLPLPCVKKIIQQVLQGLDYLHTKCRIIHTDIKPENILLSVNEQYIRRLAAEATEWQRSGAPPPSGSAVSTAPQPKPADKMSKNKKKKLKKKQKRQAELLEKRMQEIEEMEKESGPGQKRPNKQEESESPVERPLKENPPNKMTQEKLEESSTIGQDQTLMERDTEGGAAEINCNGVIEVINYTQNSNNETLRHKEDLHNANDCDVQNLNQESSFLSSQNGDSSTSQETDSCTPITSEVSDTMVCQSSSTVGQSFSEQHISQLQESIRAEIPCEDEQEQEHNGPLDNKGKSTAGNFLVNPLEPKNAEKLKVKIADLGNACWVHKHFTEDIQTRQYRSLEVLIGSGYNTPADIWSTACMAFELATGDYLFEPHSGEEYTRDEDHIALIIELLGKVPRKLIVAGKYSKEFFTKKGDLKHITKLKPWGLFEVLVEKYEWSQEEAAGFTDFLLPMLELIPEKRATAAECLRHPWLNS
T5 sequence (P29317 24-976): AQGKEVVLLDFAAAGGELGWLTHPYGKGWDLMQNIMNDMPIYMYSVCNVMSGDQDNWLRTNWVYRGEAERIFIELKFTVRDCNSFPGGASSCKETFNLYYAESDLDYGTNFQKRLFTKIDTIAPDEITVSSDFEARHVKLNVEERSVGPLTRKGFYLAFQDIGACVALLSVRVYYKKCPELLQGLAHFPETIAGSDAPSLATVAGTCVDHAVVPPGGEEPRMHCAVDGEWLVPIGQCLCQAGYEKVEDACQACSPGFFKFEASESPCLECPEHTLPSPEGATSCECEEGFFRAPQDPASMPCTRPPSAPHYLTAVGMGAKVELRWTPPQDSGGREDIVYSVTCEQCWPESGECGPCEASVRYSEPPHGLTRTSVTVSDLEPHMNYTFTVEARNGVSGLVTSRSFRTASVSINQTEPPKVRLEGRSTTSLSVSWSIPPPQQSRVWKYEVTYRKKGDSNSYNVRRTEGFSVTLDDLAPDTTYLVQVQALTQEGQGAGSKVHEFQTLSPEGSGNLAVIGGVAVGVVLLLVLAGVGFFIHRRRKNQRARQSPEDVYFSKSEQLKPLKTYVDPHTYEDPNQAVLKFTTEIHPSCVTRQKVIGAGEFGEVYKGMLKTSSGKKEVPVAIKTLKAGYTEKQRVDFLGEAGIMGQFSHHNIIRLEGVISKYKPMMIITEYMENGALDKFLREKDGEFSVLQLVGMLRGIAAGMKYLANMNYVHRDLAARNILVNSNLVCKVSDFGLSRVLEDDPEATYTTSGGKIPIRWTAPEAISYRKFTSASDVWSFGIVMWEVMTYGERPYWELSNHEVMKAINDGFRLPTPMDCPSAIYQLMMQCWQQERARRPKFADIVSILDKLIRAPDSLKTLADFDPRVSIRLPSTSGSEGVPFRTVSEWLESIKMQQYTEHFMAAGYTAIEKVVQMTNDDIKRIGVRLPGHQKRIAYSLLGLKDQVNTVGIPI

On to `Cc1ccc(C(=O)Nc2ccc(CN3CCN(C)CC3)c(C(F)(F)F)c2)cc1C#Cc1cnc2c(Nc3cnn(C)c3)cccn12` [Example 1, 4-methyl-3-((8-((1-methyl-1H-pyrazol-4-yl)amino)imidazo[1,2-a]pyridin-3-yl)ethynyl)-N-(4-((4-methylpiperazin-1-yl)methyl)-3-(trifluoromethyl)phenyl)benzamide], for which the remaining binding at 1 µM in assay [1] was 87%; in assay [2], 1%; in assay [3] it was 1%; in assay [4], 3%; in assay [5], 2%; in assay [6], 2%.
Take `Cc1ccc(NC(=O)C2(C(=O)Nc3ccc(F)cc3)CC2)cc1C#Cc1cnc2c(Nc3cnn(C(C)C)c3)cccn12` [Example 78]: the remaining binding at 1 µM in assay [1] was determined as 100%; in assay [2], 100%; in assay [3] it was 100%; in assay [4], 97%; in assay [5] it was 91%; in assay [6], 100%.
`Cc1cn(-c2cc(NC(=O)c3ccc(C)c(C#Cc4cnc5c(Nc6cnn(C)c6)cccn45)c3)cc(C(F)(F)F)c2)cn1` [Example 12, 4-methyl-N-(3-(4-methyl-1H-imidazol-1-yl)-5-(trifluoromethyl)phenyl)-3-((8-((1-methyl-1H-pyrazol-4-yl)amino)imidazo[1,2-a]pyridin-3-yl)ethynyl)benzamide]: the remaining binding at 1 µM in assay [1] was found to be 79%; in assay [2], 37%; in assay [3], 89%; in assay [4] it was 69%; in assay [5] it was 9%; in assay [6], 28%.
